Results on eight compounds are retold here after patent US5580956A, “Phospholipase C-inhibiting peptides” (priority 1992, dated 1996).

≈ marks a conversion by molar mass, not a printed value. Numbered stars: 1 amine (or outer) side, 2 acyl side, 3 side chain; on linkers, the order of the positions; unused ones are H or OH. Peptide text beside a SMILES is read from it. * marks the point of attachment. Benzoyl(2,5-(OH)2) = O=C(c1cc(O)ccc1O)*; Benzoyl(2,3-diOH) = O=C(c1cccc(O)c1O)*; Cyclohexylacetyl = O=C(CC1CCCCC1)*; Cyclopentylacetyl = O=C(CC1CCCC1)*; Butanoyl(2-Et) = CCC(CC)C(=O)*; Suc = O=C(CCC(=O)[*:2])[*:1]; Nonanoyl = CCCCCCCCC(=O)*

By inhibition is commonly meant the relative decrease from the control value, in per cent. The term MIC denotes the lowest concentration found to suppress growth. Lower therefore signals a more susceptible organism.

The target in one assay is T1, PLC-γ1 (Bos taurus, UniProt P08487).
T1 construct: A sample (PLC-γ1) was prepared from bovine thymus according to the method of Y. Homma et al; from tissue; host or cells: bovine thymus
T1 sequence (P08487 1-1291): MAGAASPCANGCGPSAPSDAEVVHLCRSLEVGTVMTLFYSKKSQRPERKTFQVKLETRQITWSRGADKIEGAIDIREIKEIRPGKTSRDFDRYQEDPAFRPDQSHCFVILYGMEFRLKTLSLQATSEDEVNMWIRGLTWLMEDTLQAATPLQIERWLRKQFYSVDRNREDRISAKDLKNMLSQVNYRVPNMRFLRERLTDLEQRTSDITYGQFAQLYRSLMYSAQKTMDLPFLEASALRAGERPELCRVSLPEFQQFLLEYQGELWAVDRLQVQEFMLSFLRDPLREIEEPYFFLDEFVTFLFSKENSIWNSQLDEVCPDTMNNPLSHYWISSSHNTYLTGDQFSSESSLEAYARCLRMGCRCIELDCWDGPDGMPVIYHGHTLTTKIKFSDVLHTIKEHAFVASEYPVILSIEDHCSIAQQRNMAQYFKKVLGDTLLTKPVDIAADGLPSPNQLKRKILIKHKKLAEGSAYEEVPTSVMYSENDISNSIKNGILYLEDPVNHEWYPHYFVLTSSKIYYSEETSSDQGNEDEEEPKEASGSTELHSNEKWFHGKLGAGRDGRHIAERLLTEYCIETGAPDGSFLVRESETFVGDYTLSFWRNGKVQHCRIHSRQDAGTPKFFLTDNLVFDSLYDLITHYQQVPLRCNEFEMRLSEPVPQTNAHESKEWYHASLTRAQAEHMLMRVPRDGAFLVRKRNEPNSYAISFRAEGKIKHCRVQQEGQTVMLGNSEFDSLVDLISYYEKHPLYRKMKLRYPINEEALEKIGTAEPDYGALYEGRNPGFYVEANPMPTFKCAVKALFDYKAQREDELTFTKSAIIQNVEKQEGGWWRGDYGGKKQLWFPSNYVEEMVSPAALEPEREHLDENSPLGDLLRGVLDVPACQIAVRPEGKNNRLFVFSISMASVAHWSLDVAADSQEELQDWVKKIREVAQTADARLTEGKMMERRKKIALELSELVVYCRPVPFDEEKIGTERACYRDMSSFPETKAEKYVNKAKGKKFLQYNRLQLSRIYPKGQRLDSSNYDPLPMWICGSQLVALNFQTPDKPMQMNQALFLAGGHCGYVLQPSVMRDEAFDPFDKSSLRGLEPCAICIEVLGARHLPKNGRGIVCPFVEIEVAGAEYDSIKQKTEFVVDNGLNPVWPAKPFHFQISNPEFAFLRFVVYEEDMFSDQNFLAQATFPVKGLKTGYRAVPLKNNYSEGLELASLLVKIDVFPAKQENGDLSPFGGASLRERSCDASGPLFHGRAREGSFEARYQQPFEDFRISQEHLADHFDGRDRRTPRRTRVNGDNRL
Put plainly: PLC-inhibiting activity (release of [3H]inositol phosphate from [3H]PIP2). The assay is classed as biochemical, bovine. As to conditions: PI-PLC-γ1, 37° C., 10 minutes, read-out: Inhibition rate (%); for inhibition at 120 µM (stock): Concentration 120 μM (aqueous solution of test peptide). How it is done: A sample (PLC-γ1) was prepared from bovine thymus according to the method of Y. Homma et al. described in Biochemical Journal [(Biochem. J.), 269, 13 (1990)]. A solution having the composition listed in Table 1 below was prepared in advance on the ice and the reaction was begun with heating to 37° C. After incubation for 10 minutes, 2 ml of a solution mixture of chloroform/methanol (2:[…]) was added thereto to stop the reaction. The resulting inositol phosphate was extracted with 0.5 ml of 1N hydrochloric acid. Two-phase distribution was carried out by centrifugation (2000×g, 3 minutes), and the amount of ^3 H contained in 0.7 ml of the supernatant was measured with scintillation counter. […] The obtained value of specific radioactivity was defined as "A", the value of specific radioactivity obtained when an equivalent amount of water was added instead of the aqueous solution of the test peptide was defined as "B", the value of specific radioactivity obtained when an equivalent amount of water was added instead of the sample and the aqueous solution of the test peptide was defined as "C", and the inhibition rate (X) was determined according to the following equation. X(%)=[…]

Assay [1] has as its system Pseudomonas aeruginosa Bin H No. 1. The assay is classed as cell-based. As to conditions: Bin H No. 1, pH 7. How it is done: (§1) The antibacterial activity was determined by the agar dilution method using a culture medium (pH 7.0) containing 3 g/l bactotrypton (product of Difco Co.), 1 g/l meat extract, 1 g/l glucose and 16 g/l agar.
The test system of assay [2] is Proteus vulgaris ATCC6897. The class given is cell-based. As to conditions: ATCC6897, pH 7. On the procedure: as §1
The test system of another assay is KMS-4 cells. Nature of the assay: Cell proliferation-inhibiting activity (BrdU incorporation, Amersham Cell Proliferation Detection Kit). The class given is cell-based. The settings on record: 17 hours with peptide, BrdU-stained cells. On the procedure: The following procedure was carried out with an Amersham Cell Proliferation Detection Kit. First, cells [KMS-4; M. Nanba et al., International Journal of Cancer, 32, 697 (1983)] were suspended in a DMEM culture medium (product of Nissui Seiyaku) containing 10% fetal calf serum to a concentration of 1-2×10^4 cells/ml, and 1 ml of the above-mentioned cell suspension was put into each well of a 24-well plate (product of Corning Co.). The cells were cultured for 2 days in a CO2 incubator (37° C., 5% CO2). Next, the culture medium was exchanged with a DMEM medium containing 10% fetal calf serum, and then the test peptide was added thereto and culturing was carried out for 17 hours. The culture medium was again exchanged with a serum-free DMEM medium, 0.5 ml of a solution of the reagents labelled 5-bromo-2'-deoxyuridine (BrdU) and 5-fluoro-2'-deoxyuridine (FdU) [10:1] diluted 1000-fold with the same medium was added to each well, and cultured for 2 hours. The culture medium was removed, and the cells were immobilized with an acetic acid/ethanol solution. The immobilized cells were stained according to the method for the Amersham Cell Proliferation Kit, and then further stained with a 1% Giemsa solution (product of Merck Co.). The number of cells incorporating BrdU and the total cell count within 1 field of vision of the microscope (approximately 200 cells) were determined, and the proportion (%) of stained cells per field of vision was calculated. Furthermore, the same procedure was repeated 10 times, and the average value thereof was defined as the cell proliferation activity (%). The cell proliferation-inhibiting activity was calculated in the following manner. The proliferation activity without addition of peptide was defined as "A", the proliferation activity with addition of the test peptide was defined as "B", and the cell proliferation inhibition rate (X) was determined according to the following equation. X (%)=[…]
(In general: Incorporation of labelled thymidine or its analogues reports DNA synthesis.)

Take `CCC(CC)C(=O)N[C@@H](CC(C)C)C(=O)N[C@@H](Cc1ccc(O)cc1)C(=O)N[C@@H](CCCNC(=N)N)C(=O)N[C@@H](CCCCN)C(=O)N[C@@H](CCSC)C(=O)N[C@@H](CCCNC(=N)N)C(=O)N[C@@H](CC(C)C)C(=O)N[C@@H](CCCNC(=N)N)C(=O)N[C@@H](Cc1ccc(O)cc1)C(=O)N1CCC[C@H]1C(=O)N[C@H](C(N)=O)C(C)C` [(I-20), (CH3 CH2)2 CHCO-Leu-Tyr-Arg-Lys-Met-Arg-Leu-Arg-Tyr-Pro-Val-NH2] ({Butanoyl(2-Et)}-LYRKMRLRYPV-NH2): at PLC-γ1 (Concentration 630 μM (aqueous solution of test peptide)), the inhibition at 630 µM (stock) was determined as 74%. Moreover, the “MIC” value in assay [1] and in assay [2] was 83 µg/mL (≈ 52.1 µM) in each case. For the same compound, the “Cell proliferation inhibition rate (%)” value in the assay on KMS-4 cells (Concentration 31 μM) is given as 44%.

Take “H-YRKMRLRY-NH2 [Compound (I-9), H-Tyr-Arg-Lys-Met-Arg-Leu-Arg-Tyr-NH2]”: the inhibition at 850 µM (stock) at PLC-γ1 (Concentration 850 μM (aqueous solution of test peptide)) was 34%. Moreover, the “Cell proliferation inhibition rate (%)” value in the assay with KMS-4 cells (Concentration 42 μM) was found to be 50%.

For `CSCC[C@H](NC(=O)[C@H](CCCCN)NC(=O)[C@H](CCCNC(=N)N)NC(=O)[C@H](Cc1ccc(O)cc1)NC(=O)[C@H](CC(C)C)NC(=O)c1cc(O)ccc1O)C(=O)N[C@@H](CCCNC(=N)N)C(=O)N[C@@H](CC(C)C)C(=O)N[C@@H](CCCNC(=N)N)C(=O)N[C@@H](Cc1ccc(O)cc1)C(=O)N1CCC[C@H]1C(=O)N[C@H](C(N)=O)C(C)C` [(I-15), (HO)2 C6 H3 CO-Leu-Tyr-Arg-Lys-Met-Arg-Leu-Arg-Tyr-Pro-Val-NH2] ({Benzoyl(2,5-(OH)2)}-LYRKMRLRYPV-NH2), the inhibition at 120 µM (stock) on PLC-γ1 is 41%. Moreover, in the assay on KMS-4 cells (Concentration 31 μM), the “Cell proliferation inhibition rate (%)” value is 66%.

Turning to `CSCC[C@H](NC(=O)[C@H](CCCCN)NC(=O)[C@H](CCCNC(=N)N)NC(=O)[C@H](Cc1ccc(O)cc1)NC(=O)[C@H](CC(C)C)NC(=O)c1cccc(O)c1O)C(=O)N[C@@H](CCCNC(=N)N)C(=O)N[C@@H](CC(C)C)C(=O)N[C@@H](CCCNC(=N)N)C(=O)N[C@@H](Cc1ccc(O)cc1)C(=O)N1CCC[C@H]1C(=O)N[C@H](C(N)=O)C(C)C` [(I-13), (HO)2 C6 H3 CO-Leu-Tyr-Arg-Lys-Met-Arg-Leu-Arg-Tyr-Pro-Val-NH2] ({Benzoyl(2,3-diOH)}-LYRKMRLRYPV-NH2), the inhibition at 610 µM (stock) on PLC-γ1 (Concentration 610 μM (aqueous solution of test peptide)) came to 89%. For the same compound, the “Cell proliferation inhibition rate (%)” value in the assay with KMS-4 cells (Concentration 31 μM) turned out to be 69%.

Take `CSCC[C@H](NC(=O)[C@H](CCCCN)NC(=O)[C@H](CCCNC(=N)N)NC(=O)[C@H](Cc1ccc(O)cc1)NC(=O)[C@H](CC(C)C)NC(=O)CC1CCCC1)C(=O)N[C@@H](CCCNC(=N)N)C(=O)N[C@@H](CC(C)C)C(=O)N[C@@H](CCCNC(=N)N)C(=O)N[C@@H](Cc1ccc(O)cc1)C(=O)N1CCC[C@H]1C(=O)N[C@H](C(N)=O)C(C)C` [(I-17), C5 H9 CH2 CO-Leu-Tyr-Arg-Lys-Met-Arg-Leu-Arg-Tyr-Pro-Val-NH2] (Cyclopentylacetyl-LYRKMRLRYPV-NH2): the inhibition at 120 µM (stock) on PLC-γ1 is 53%. The “Cell proliferation inhibition rate (%)” value in the assay with KMS-4 cells (Concentration 31 μM) amounted to 72%.

As to `CCCCCCCCC(=O)N[C@@H](CC(C)C)C(=O)N[C@@H](Cc1ccc(O)cc1)C(=O)N[C@@H](CCCNC(=N)N)C(=O)N[C@@H](CCCCN)C(=O)N[C@@H](CCSC)C(=O)N[C@@H](CCCNC(=N)N)C(=O)N[C@@H](CC(C)C)C(=O)N[C@@H](CCCNC(=N)N)C(=O)N[C@@H](Cc1ccc(O)cc1)C(=O)N1CCC[C@H]1C(=O)N[C@H](C(N)=O)C(C)C` [(I-28), CH3 (CH2)7 CO-Leu-Tyr-Arg-Lys-Met-Arg-Leu-Arg-Tyr-Pro-Val-NH2] (Nonanoyl-LYRKMRLRYPV-NH2), the inhibition at 120 µM (stock) at PLC-γ1 amounted to 78%. In the assay on KMS-4 cells (Concentration 31 μM), the “Cell proliferation inhibition rate (%)” value worked out at 22%.

Regarding `CSCC[C@H](NC(=O)[C@H](CCCCN)NC(=O)[C@H](CCCNC(=N)N)NC(=O)[C@H](Cc1ccc(O)cc1)NC(=O)[C@H](CC(C)C)NC(=O)CCC(=O)O)C(=O)N[C@@H](CCCNC(=N)N)C(=O)N[C@@H](CC(C)C)C(=O)N[C@@H](CCCNC(=N)N)C(=O)N[C@@H](Cc1ccc(O)cc1)C(=O)N1CCC[C@H]1C(=O)N[C@H](C(N)=O)C(C)C` [(I-22), HOO (CH2)2 CO-Leu-Tyr-Arg-Lys-Met-Arg-Leu-Arg-Tyr-Pro-Val-NH2] (Suc-LYRKMRLRYPV-NH2), the inhibition at 130 µM (stock) at PLC-γ1 (Concentration 130 μM (aqueous solution of test peptide)) was 36%. Further, the “MIC” value in assay [1] was determined as 42 µg/mL (≈ 26.3 µM); in assay [2] it was 83 µg/mL (≈ 52.1 µM). Further, the “Cell proliferation inhibition rate (%)” value in the assay with KMS-4 cells (Concentration 31 μM) was 84%.

With `CSCC[C@H](NC(=O)[C@H](CCCCN)NC(=O)[C@H](CCCNC(=N)N)NC(=O)[C@H](Cc1ccc(O)cc1)NC(=O)[C@H](CC(C)C)NC(=O)CC1CCCCC1)C(=O)N[C@@H](CCCNC(=N)N)C(=O)N[C@@H](CC(C)C)C(=O)N[C@@H](CCCNC(=N)N)C(=O)N[C@@H](Cc1ccc(O)cc1)C(=O)N1CCC[C@H]1C(=O)N[C@H](C(N)=O)C(C)C` [(I-25), C6 H11 CH2 CO-Leu-Tyr-Arg-Lys-Met-Arg-Leu-Arg-Tyr-Pro-Val-NH2] (Cyclohexylacetyl-LYRKMRLRYPV-NH2), the inhibition at 120 µM (stock) at PLC-γ1 was determined as 50%. The “Cell proliferation inhibition rate (%)” value in the assay with KMS-4 cells (Concentration 31 μM) came out at 75%.
